The test relates to HCV 1b genotype replicon. Briefly: HCV replicon assay (qRT-PCR or luciferase), genotype 1b. Type of test: cell-based. The settings on record: Hepatitis C virus, read-out: Genotype-1b replicon EC50 Range. The text has this:
HCV replicon cell lines (kindly provided by R. Bartenschlager) isolated from colonies as described by Lohman et. al. (Lohman et al. (1999) Science 285: 110-113, expressly incorporated by reference in its entirety) and used for all experiments. The HCV replicon has the nucleic acid sequence set forth in EMBL Accession No.: AJ242651, the coding sequence of which is from nucleotides 1801 to 8406.
The coding sequence of the published HCV replicon was synthesized and subsequently assembled in a modified plasmid pBR322 (Promega, Madison, Wis.) using standard molecular biology techniques. […]
EC50 values of single agent compounds and combinations were determined by HCV RNA detection using quantitative RT-PCR, according to the manufacturer's instructions, with a TaqMan® One-Step RT-PCR Master Mix Reagents Kit (Cat# AB 4309169, Applied Biosystems) on an ABI Model 7500 thermocycler. The TaqMan primers used for detecting and quantifying HCV RNA were obtained from Integrated DNA Technologies. HCV RNA was normalized to GAPDH RNA levels in drug-treated cells, which is detected and quantified using the Human GAPDH Endogenous Control Mix (Applied Biosystems, AB 4310884E). […] Chemical agent cytotoxicity is evaluated using an MTS assay according to the manufacturer's directions (Promega). […]
On the technique in general: Replicon systems follow genome replication, usually without infectious particles.

The term EC50 denotes the concentration at which the effect is half-maximal. With `CN(C)[C@H](C(=O)N1CCC[C@H]1c1nc(C(=O)N[C@H]2CC[C@H](NC(=O)c3c[nH]c([C@@H]4CCCN4C(=O)[C@@H](c4ccccc4)N(C)C)n3)CC2)c[nH]1)c1ccccc1` [Example 2], the EC50 was more than 10 nM.

These data come from US8426458B2, “Hepatitis C Virus inhibitors” (priority 2009, dated 2013).
